Like-named read-outs stand apart in the source and are kept apart here.
How the values were obtained:
[1] = target: KRAS-WT (Homo sapiens, UniProt P01116); test: SOS-catalyzed nucleotide exchange assay (Procedure A, TR-FRET), KRAS-WT; format: biochemical; conditions: nucleotide exchange, read-out: KRAS WT GNE IC50
Procedure, shortened: (§1)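 Inhibitors stabilizing the Bodipy-GDP state are detected as retained TR-FRET from a preformed biotinylated RAS/Tb-streptavidin complex. They are preincubated 60 min at room temperature, then human SOS and 3 mM GTP are added. G12V runs 90 min at 1.25 nM RAS/160 nM SOS. G12C (3 nM), WT (1 nM) and NRAS (1.25 nM) run 60 min with 40 nM SOS.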

[2] = test system: AsPC-1 cells; test: Cellular phospho-ERK assay, AsPC-1 cells (homozygous KRAS-G12D); format: cell-based; conditions: Homo sapiens, read-out: AsPC1 pERK IC50
Procedure: Procedure for Cellular Phospho-ERK Assay in KRAS Wild Type and Mutant (G12D, G12V) Cell Lines
MKN-1 cells (JCRB JCRB0252) containing amplified wild-type KRAS, were cultured in growth medium that contains RPMI 1640-GlutaMAX™-I (ThermoFisher Scientific 61870) containing 10% heat inactivated fetal bovine serum (ThermoFisher Scientific 10091148), 1 mM sodium pyruvate and 10 mM HEPES. PANC08.13 cells (ATCC® CRL-2551™), containing homozygous KRAS-G12D activating mutation, were cultured in growth medium made of RPMI1640-GlutaMAX™-I (ThermoFisher Scientific 61870) containing 15% heat inactivated fetal bovine serum (ThermoFisher Scientific 10091148)). AsPC-1 cells (ATCC® CRL-1682™), containing homozygous KRAS-G12D activating mutation, were cultured in T150 flask in growth medium (RPMI medium 1640-GlutaMAX™-I (ThermoFisher Scientific 61870) containing 10% fetal bovine serum (ThermoFisher Scientific 10091148)). SW620 cells (ATCC® […]), containing homozygous KRAS-G12V activating mutation, were cultured in growth medium that contains RPMI 1640-GlutaMAX™-I (ThermoFisher Scientific 61870) containing 10% heat inactivated fetal bovine serum (ThermoFisher Scientific 10091148).
Cells for the assay were harvested in growth medium after TrypLE (ThermoFisher scientific 12604021) digestion and were seeded in a 384-well collagen coated cell culture plate (Corning 356702) at a density of 10,000-15,000 cells/20 μL/well, and incubated at 37° C., 5% CO2 overnight. The compound (with 10 mM stock concentration) dose-response titrations were prepared [30 μM final ERK detection assay concentration and 1:3 dilutions, 10-point dose response] and appropriate amounts (270 nL) of test compounds were dispensed in a 384-well intermediate plate using an Echo 550 liquid handler. 30 μL/well of RPMI medium 1640-GlutaMAX™—I was added to the intermediate plate and the contents of the intermediate plate (10 μL/well) were then transferred to the 384-well collagen coated cell culture plate, which was incubated at 37° C., 5% CO2 for 2 hours. After removal of medium from the collagen coated cell culture plate, cells were lysed in lysis buffer from Alpha SureFire® Ultra™ Multiplex p-ERK and total ERK assay kit (PerkinElmer MPSU-PTERK) containing Halt™ Protease and Phosphatase inhibitor cocktail (ThermoFisher Scientific 78446) at room temperature with constant shaking at 300 rpm for 30 minutes. The cell lysates were then transferred to an OptiPlate-384 plate (PerkinElmer 6005620), and the phosphorylation of ERK (p-ERK) and total ERK levels were detected by Alpha SureFire® Ultra™ Multiplex p-EEK kit and total ERK assay kit (PerkinElmer MPSU-PTERK) following the manufacturer's protocol. Assay plates were read on a En Vision Multimode Plate Reader (PerkinElmer), and the ratio of p-ERK vs. total ERK in each well was used as the final readout. Dose response curves were analyzed using a 4-parameter logistic model to calculate IC50 values using Spotfire software.

[3] = target: KRAS-G12D (Homo sapiens, UniProt P01116, G12D); test: SOS-catalyzed nucleotide exchange assay (Procedure A, TR-FRET), KRAS-G12D; format: biochemical
KRAS-G12D, sequence (P01116 with tags, fused parts or gaps isoform P01116-2 G12D): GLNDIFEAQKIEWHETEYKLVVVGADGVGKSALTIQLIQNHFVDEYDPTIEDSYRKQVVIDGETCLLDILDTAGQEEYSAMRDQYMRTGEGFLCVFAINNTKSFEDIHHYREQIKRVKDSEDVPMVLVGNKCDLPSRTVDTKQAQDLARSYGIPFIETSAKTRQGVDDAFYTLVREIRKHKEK
Procedure, shortened: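 Signal ratio (520/495 nm, excitation 340 nm) reports Bodipy-GDP retention on biotinylated RAS after SOS-catalyzed exchange with 3 mM GTP. SOS was 40 nM, except 160 nM for G12V. Room-temperature exchange lasted 60 min (90 min for G12V), following a 60 min compound preincubation.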

[4] = target: KRAS-G12V (Homo sapiens, UniProt P01116, G12V); test: SOS-catalyzed nucleotide exchange assay (Procedure A, TR-FRET), KRAS-G12V; format: biochemical
KRAS-G12V, sequence (P01116 with tags, fused parts or gaps isoform P01116-2 G12V): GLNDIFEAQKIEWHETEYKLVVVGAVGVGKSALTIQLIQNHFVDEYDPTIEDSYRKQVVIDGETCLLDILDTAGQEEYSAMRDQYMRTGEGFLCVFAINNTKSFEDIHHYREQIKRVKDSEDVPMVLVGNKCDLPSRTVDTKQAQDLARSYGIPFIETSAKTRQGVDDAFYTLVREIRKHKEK
Procedure, shortened: as §1

[5] = nucleotide exchange, read-out: KRAS G12D GNE IC50
[6] = nucleotide exchange, read-out: KRAS G12V GNE IC50
[7] = ASPC1, 2 h, 2 hours compound incubation

KRAS-WT, sequence (P01116 with tags, fused parts or gaps isoform P01116-2): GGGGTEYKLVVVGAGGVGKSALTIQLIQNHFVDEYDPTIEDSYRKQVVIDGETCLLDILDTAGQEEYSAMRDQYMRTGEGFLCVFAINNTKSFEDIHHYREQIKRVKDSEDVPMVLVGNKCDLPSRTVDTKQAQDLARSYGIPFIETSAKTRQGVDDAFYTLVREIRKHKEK

Structure (SMILES) | IC50 [1] [nM] | IC50 ([2]; ASPC1, 2 h, KRAS-G12D, 2 hours) [nM] | IC50 [3, 5] [nM] | IC50 [4, 6] [nM] | IC50 [2, 7] [nM] | IC50 ([2]; ASPC1, KRAS-G12D, 2 hours) [nM] | IC50 ([3]; KRAS G12D GNE IC50, nucleotide exchange) [nM] | IC50 ([4]; KRAS G12V GNE IC50, nucleotide exchange) [nM]
CO[C@H]1C[C@@H](COc2nc(N3CCOC[C@@](C)(O)C3)c3c(n2)sc2c(-c4c(C5CC5)c(C(F)(F)F)cc5[nH]ncc45)nccc23)N(C)C1 [Ex-84, (6S)-4-(8-(5-cyclopropyl-6-(trifluoromethyl)-1H-indazol-4-yl)-2-(((2S,4S)-4-methoxy-1-methylpyrrolidin-2-yl)methoxy)pyrido[4′,3′:4,5]thi-eno[2,3-d]pyrimidin-4-yl)-6-methyl-1,4-oxazepan-6-ol] | 1380 | 2890 | 670 | 847 | – | – | – | –
C[C@@]1(O)COCCN(c2nc(OC[C@@]34CCCN3C[C@H](F)C4)nc3sc4c(-c5cccc(Cl)c5[Si](C)(C)C)nccc4c23)C1 [Ex-123, (S)-4-(8-(3-chloro-2-(trimethylsilyl)phenyl)-2-(((2R,7aS)-2-fluorotetrahydro-1H-pyrrolizin-7a(5H)-yl)methoxy)pyri-do[4′,3′:4,5]thieno[2,3-d]pyrimidin-4-yl)-6-methyl-1,4-oxazepan-6-ol] | 434 | – | – | – | – | 2060 | 173 | 157
CC1CCc2cccc(-c3nccc4c3sc3nc(OC[C@@]56CCCN5C[C@H](F)C6)nc(N5CCOC[C@@](C)(O)C5)c34)c21 (single isomer, unassigned) [Ex-117] | 218 | 720 | 73.6 | 96.1 | – | – | – | –
C[C@@]1(O)COCCN(c2nc(OC[C@@]34CCCN3C[C@H](F)C4)nc3sc4c(-c5c(C6=CCC6)c(C(F)(F)F)cc6[nH]ncc56)nccc4c23)C1 [Ex-77, (6S)-4-(8-(5-(cyclobut-1-en-1-yl)-6-(trifluoromethyl)-1H-indazol-4-yl)-2-(((2R,7aS)-2-fluorotetrahydro-1H-pyrrolizin-7a(5H)-yl)methoxy)pyrido[4′,3′:4,5]thi-eno[2,3-d]pyrimidin-4-yl)-6-methyl-1,4-oxazepan-6-ol] | 61.8 | 175 | 15 | 20.8 | – | – | – | –
Cc1c(Cl)cccc1-c1nccc2c1sc1nc(OC[C@@]34CCCN3C[C@H](F)C4)nc(N3CCOC[C@@](C)(O)C3)c12 [Ex-121, (S)-4-(8-(3-chloro-2-methylphenyl)-2-(((2R,7aS)-2-fluorotetrahydro-1H-pyrrolizin-7a(5H)-yl)methoxy)pyrido[4′,3′:4,5]thi-eno[2,3-d]pyrimidin-4-yl)-6-methyl-1,4-oxazepan-6-ol] | 1030 | 3430 | 369 | 278 | – | – | – | –
C=C(c1c(C)cc2[nH]ncc2c1-c1nccc2c1sc1nc(OC[C@@]34CCCN3C[C@H](F)C4)nc(N3CCOC[C@@](C)(O)C3)c12)C(F)(F)F [Ex-66, (6S)-4-(2-(((2R,7aS)-2-fluorotetrahydro-1H-pyrrolizin-7a(5H)-yl)methoxy)-8-(6-methyl-5-(3,3,3-trifluoroprop-1-en-2-yl)-1H-indazol-4-yl)pyrido[4′,3′:4,5]thieno [2,3-d]pyrimidin-4-yl)-6-methyl-1,4-oxazepan-6-ol] | 218 | 457 | 93.6 | 57.9 | – | – | – | –
CC1=CCc2cc3[nH]ncc3c(-c3nccc4c3sc3nc(OC[C@@]56CCCN5C[C@H](F)C6)nc(N5CCOC[C@@](C)(O)C5)c34)c21 [Ex-106, (6S)-4-(2-(((2R,7aS)-2-fluorotetrahydro-1H-pyrrolizin-7a(5H)-yl)methoxy)-8-(5-methyl-1,7-dihydrocyclopenta[f]inda-zol-4-yl)pyrido[4′,3′:4,5]thieno [2,3-d]pyrimidin-4-yl)-6-methyl-1,4-oxazepan-6-ol] | 55.1 | 128 | 19.7 | 30.6 | – | – | – | –

More lines, main results first:

IC50 [1] [nM] | IC50 ([2]; ASPC1, 2 h, KRAS-G12D, 2 hours) [nM] | IC50 [3, 5] [nM] | IC50 [4, 6] [nM] | IC50 [2, 7] [nM] | Structure (SMILES) | IC50 ([2]; ASPC1, KRAS-G12D, 2 hours) [nM] | IC50 ([3]; KRAS G12D GNE IC50, nucleotide exchange) [nM] | IC50 ([4]; KRAS G12V GNE IC50, nucleotide exchange) [nM]
36.2 | – | 8.56 | 18.6 | 152 | C[C@@]1(O)COCCN(c2nc(OC[C@]3(CN4CC5(CC5)C4)CC3(F)F)nc3sc4c(-c5c(C6(F)CC6)c(Cl)cc6[nH]ncc56)nccc4c23)C1 [Ex-250, (6S)-4-(2-(((R)-1-((5-azaspiro[2.3]hexan-5-yl)methyl)-2,2-difluorocyclopropyl)methoxy)-8-(6-chloro-5-(1-fluorocyclopropyl)-1H-indazol-4-yl)pyrido[4′,3′:4,5]thieno[2,3-d]pyrimidin-4-yl)-6-methyl-1,4-oxazepan-6-ol] | – | – | –
31.2 | 356 | 8.24 | 11.7 | – | Cc1cc2[nH]ncc2c(-c2nncc3c2sc2nc(OC[C@@]45CCCN4C[C@H](F)C5)nc(N4CCOC[C@@](C)(O)C4)c23)c1-c1ccco1 [Ex-281, (6S)-4-(2-(((2R,7aS)-2-fluorotetrahydro-1H-pyrrolizin-7a(5H)-yl)methoxy)-8-(5-(furan-2-yl)-6-methyl-1H-indazol-4-yl)pyrimido[5′,4′:4,5]thie-no[2,3-d]pyridazin-4-yl)-6-methyl-1,4-oxazepan-6-ol] | – | – | –
38.8 | – | 7 | 25.2 | 124 | COCC12CC(CN1C[C@@]1(COc3nc(N4CCOC[C@@](C)(O)C4)c4c(n3)sc3c(-c5c(C6(F)CC6)c(Cl)cc6[nH]ncc56)nccc34)CC1(F)F)C2 [Ex-258, (6S)-4-(8-(6-chloro-5-(1-fluorocyclopropyl)-1H-indazol-4-yl)-2-(((R)-2,2-difluoro-1-((1-(methoxymethyl)-2-azabicyclo[2.1.1]hexan-2-yl)methyl)cyclopropyl)metho-xy)pyrido[4′,3′:4,5]thieno[2,3-d]pyrimidin-4-yl)-6-methyl-1,4-oxazepan-6-ol] | – | – | –
980 | – | 409 | 436 | 2490 | Cc1cc2[nH]ncc2c(-c2nccc3c2sc2nc(OC[C@@]45CCCN4C[C@H](F)C5)nc(NCC4COC4)c23)c1C(F)(F)F [Ex-186, 2-(((2R,7aS)-2-fluorotetra-hydro-1H-pyrrolizin-7a(5H)-yl)methoxy)-8-(6-methyl-5-(trifluorometh-yl)-1H-indazol-4-yl)-N-(oxetan-3-ylmethyl)pyrido [4′,3′:4,5]thieno[2,3-d] pyrimidin-4-amine] | – | – | –
35.8 | – | 8.06 | 19.4 | 1870 | Cc1cc2[nH]ncc2c(-c2nccc3c2sc2nc(OC[C@@]45CCCN4C[C@H](F)C5)nc(N4CCC[C@@]5(CNC(=O)O5)C4)c23)c1C(F)(F)F [Ex-196, (5R)-7-(2-(((2R,7aS)-2-fluorotetrahydro-1H-pyr-rolizin-7a(5)-yl)methoxy)-8-(6-methyl-5-(trifluoro-methyl)-1H-indazol-4-yl)-pyrido[4′,3′:4,5]thieno[2,3-d]pyrimidin-4-yl)-1-oxa-3,7-diazaspiro[4.5]decan-2-one] | – | – | –
